Measured values: US20110280770A1, “Nanogenerator” (priority 2010, published 2011)
Non-standard residues stand in square brackets, D forms with d. Residues, ends and D or L forms follow the SMILES beside them. *: point of attachment. NOTA = O=C(O)CN1CCN(CC(=O)O)CCN(CC(=O)*)CC1

Tests used:
[1] = target: T1, melanocortin-1 receptor (Mus musculus, UniProt Q01727); conditions: comparison value for the optimal peptide construct for Cu-64; cited from earlier work
T1 construct: endogenous in cells; host or cells: B16/F1 cells

[2] = tested on: melanoma cells; experiment: In vitro cell binding of radiolabeled peptide; assay type: cell-based; conditions: 1 million cells per well, 320,000 cpm; maximum at 10 min, constant for 50 min
Procedure: Tissue culture wells containing 1 million cells each were incubated with 320,000 cpm of ^62Cu-NOTA-2-GGG-Arg11 for various times between 5 min and 50 min then washed and counted. […] In vitro cell binding of 10% for the ^62Cu-NOTA-2-GGG-Arg11 peptide is similar to then in vitro cell uptake percentages for HPLC purified.

[3] = tested on: B16/F1 flank tumor; experiment: PET imaging study in tumor bearing mice (microPET-Focus); assay type: in vivo; conditions: static imaging for 20 min starting 10 min post administration
Procedure: Pilot Animal Studies using ^62Cu labeled Peptide: Biodistribution and PET studies of radiolabeled ^62Cu-NOTA-2-GGG-Arg11 were performed in B16/F1 flank tumor bearing C57 mice utilizing the newly designed nanogenerator with the 5 μg lyophilized peptide kits. Fourteen male and female, 6-8 week old mice were injected with B16/F1 cells (1,000,000/mouse) in the flanks or shoulders while anesthetized to induce solid tumors. B16/F1 solid tumors appeared in 14 days post inoculation. […] Animals in the biodistribution studies were sacrificed by cervical dislocation followed by pneumothorax at 10, 20, and 40 min post administration, major organs removed, weighed, and radioactivity quantitated in a windowed gamma counter.
A preliminary PET imaging study was also performed, in which two anesthetized animals were used for PET imaging studies starting at 10 min post administration of the radiolabeled peptide and statically imaged with a microPET-Focus scanner (Siemens Preclinical Solutions, Knoxville, Tenn.) for 20 min (see FIG. 9). […] Background levels of radioactivity in the blood and major organs and tissues were low, except for the kidneys.

[4] = tested on: B16/F1 flank tumor; experiment: Biodistribution in B16/F1 flank tumor bearing C57 mice; assay type: in vivo; conditions: for Tumor uptake: tail vein
Procedure: (§1) Pilot Animal Studies using ^62Cu labeled Peptide: Biodistribution and PET studies of radiolabeled ^62Cu-NOTA-2-GGG-Arg11 were performed in B16/F1 flank tumor bearing C57 mice utilizing the newly designed nanogenerator with the 5 μg lyophilized peptide kits. Fourteen male and female, 6-8 week old mice were injected with B16/F1 cells (1,000,000/mouse) in the flanks or shoulders while anesthetized to induce solid tumors. B16/F1 solid tumors appeared in 14 days post inoculation. Radiolabeled peptides were injected through the tail vein at an average of 0.27 mCi per dose administration for biodistribution studies and an average of 0.7 mCi for imaging, achieving specific activities of 111.2-140.4 Ci/μmol (mean=122.1 Ci/μmol), and an average of 94.0% radiolabeling yield without a purification step after synthesis. Animals in the biodistribution studies were sacrificed by cervical dislocation followed by pneumothorax at 10, 20, and 40 min post administration, major organs removed, weighed, and radioactivity quantitated in a windowed gamma counter.
(§2) Uptake was measured for the tumor, blood, heart, lung, liver, small intestine, intestine, kidneys, muscle, carcass and paper, and skin. Tumor uptake was rapid, reaching 4.65±0.48 ID/g and 9.43±2.69% ID/g at 20 and 40 min post injection, respectively.

[5] = as above; assay type: in vivo; conditions: both sexes, C57, mouse, tumor (B16/F1 flank tumor), iv, 0.27 mCi, total radioactivity; 40 min post injection; tail vein
Procedure: as §1, §2

T1 sequence (Q01727 whole entry): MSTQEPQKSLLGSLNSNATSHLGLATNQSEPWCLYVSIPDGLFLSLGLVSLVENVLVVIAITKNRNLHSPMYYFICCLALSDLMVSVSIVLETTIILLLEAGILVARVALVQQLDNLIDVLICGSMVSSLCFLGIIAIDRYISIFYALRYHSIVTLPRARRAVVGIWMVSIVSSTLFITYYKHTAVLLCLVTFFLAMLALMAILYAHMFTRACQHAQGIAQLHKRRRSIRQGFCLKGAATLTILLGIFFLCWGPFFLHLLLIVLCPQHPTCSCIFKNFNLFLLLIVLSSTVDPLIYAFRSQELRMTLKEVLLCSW

| Tumor uptake ([4]; 20 min post injection) [%ID/g] | Tumor uptake ([4]; 40 min post injection) [% ID/g] | tissue uptake at 40 min [5] [%ID/g] | Compound | IC50 [1] [nM] | Maximum cell uptake of the radiolabeled peptide [2] [%] | PET tumor visualization [3] | Tumor uptake in the blocked mice relative to radiolabeled peptide alone ([4]; 20 min post injection, 20 μg non-labeled NDP-MSH co-injected) | Clearance and route of excretion ([4]; biodistribution at 10, 20 and 40 min) |
| --- | --- | --- | --- | --- | --- | --- | --- | --- |
| – | – | – | CBTE2A-ReCCMSH [CBTE2A conjugated ReCCMSH peptide, the optimal peptide construct for Cu-64] | 5.4 | – | – | – | – |
| 4.65 ± 0.48 | 9.43±2.69 | 9.43 ± 2.69 | CC(C)[C@H](NC(=O)[C@@H]1CCCN1C(=O)[C@H](CCCNC(=N)N)NC(=O)[C@H](CS)NC(=O)[C@H](Cc1c[nH]c2ccccc12)NC(=O)[C@H](CCCNC(=N)N)NC(=O)[C@@H](Cc1ccccc1)NC(=O)[C@H](Cc1c[nH]cn1)NC(=O)[C@H](CCC(=O)O)NC(=O)[C@H](CS)NC(=O)[C@H](CS)NC(=O)CNC(=O)CNC(=O)CNC(=O)CN1CCN(CC(=O)O)CCN(CC(=O)O)CC1)C(N)=O [^62Cu-NOTA-2-GGG-Arg11, metal not drawn] ({NOTA}-GGGCCEH[dF]RWCRPV-NH2) | – | 10 | tumor is clearly visualized | 0.55 % of tumor uptake in the mice receiving the radiolabeled peptide alone | clearance from the blood and non-target tissues except for the kidneys, which was the primary route of excretion |
